Activity calls are given as the source filed them. The calls are words filed in the database; no cut-off is given here.
Legend:
A549 [1] = assay: Induction of apoptosis in human A549 cells assessed as cell shrinkage after 48 hrs by AO/EB staining based fluorescent microscopic analysis; assay type: functional; details: dose 0.1-10 µM, DDE = dose-dependent effect
[2] = tested on: Epidermal growth factor receptor (Homo sapiens), P00533 [L858R,T790M,C797S]; details: dose 300.0 nM
NCI-H1975 [3] = assay: Induction of apoptosis in human H1975 cells assessed as chromatin condensation after 48 hrs by AO/EB staining based fluorescent microscopic analysis; assay type: functional, cell-based; details: dose 0.1-10 µM, DDE = dose-dependent effect
[4] = biological target: Hepatocyte growth factor receptor (Homo sapiens, UniProt P08581); assay: Inhibition of c-Met (unknown origin) by mobility shift assay
NCI-H1975 [5] = assay: Inhibition of cell migration of human H1975 cells at 0.1 to 1 uM after 24 hrs by scratch wound healing assay; assay type: functional, cell-based; details: dose 0.1-1 µM
A549 [6] = assay: Inhibition of cell migration of human A549 cells at 0.1 to 1 uM after 24 hrs by scratch wound healing assay; assay type: functional, cell-based; details: dose 0.1-1 µM
A549 [7] = assay: Antiproliferative activity against human A549 cells assessed as cell viability after 72 hrs by MTT assay; assay type: functional, cell-based; details: A549, 72 h
NCI-H1975 [8] = assay: Induction of cell cycle arrest in human H1975 cells assessed as number of cells at S phase at 4 uM after 24 hrs by flow cytometry (reference value: 25.41%); assay type: functional
NCI-H1975 [9] = assay: Induction of cell cycle arrest in human H1975 cells assessed as number of cells at S phase at 1.3 uM after 24 hrs by flow cytometry (reference value: 25.41%); assay type: functional
NCI-H1975 [10] = assay: Induction of cell cycle arrest in human H1975 cells assessed as number of cells at S phase at 12 uM after 24 hrs by flow cytometry (reference value: 25.41%); assay type: functional
NCI-H1975 [11] = assay: Induction of cell cycle arrest in human H1975 cells assessed as number of cells at G1/G0 phase at 4 uM after 24 hrs by flow cytometry (reference value: 43.18%); assay type: functional
[12] = biological target: Epidermal growth factor receptor (Homo sapiens, UniProt P00533, L858R/T790M); assay: Inhibition of EGFR L858R/T790M mutant (unknown origin) by mobility shift assay
Chain of Epidermal growth factor receptor (Homo sapiens, UniProt P00533, L858R/T790M) (P00533 25-1210 T790M/L858R limits assumed): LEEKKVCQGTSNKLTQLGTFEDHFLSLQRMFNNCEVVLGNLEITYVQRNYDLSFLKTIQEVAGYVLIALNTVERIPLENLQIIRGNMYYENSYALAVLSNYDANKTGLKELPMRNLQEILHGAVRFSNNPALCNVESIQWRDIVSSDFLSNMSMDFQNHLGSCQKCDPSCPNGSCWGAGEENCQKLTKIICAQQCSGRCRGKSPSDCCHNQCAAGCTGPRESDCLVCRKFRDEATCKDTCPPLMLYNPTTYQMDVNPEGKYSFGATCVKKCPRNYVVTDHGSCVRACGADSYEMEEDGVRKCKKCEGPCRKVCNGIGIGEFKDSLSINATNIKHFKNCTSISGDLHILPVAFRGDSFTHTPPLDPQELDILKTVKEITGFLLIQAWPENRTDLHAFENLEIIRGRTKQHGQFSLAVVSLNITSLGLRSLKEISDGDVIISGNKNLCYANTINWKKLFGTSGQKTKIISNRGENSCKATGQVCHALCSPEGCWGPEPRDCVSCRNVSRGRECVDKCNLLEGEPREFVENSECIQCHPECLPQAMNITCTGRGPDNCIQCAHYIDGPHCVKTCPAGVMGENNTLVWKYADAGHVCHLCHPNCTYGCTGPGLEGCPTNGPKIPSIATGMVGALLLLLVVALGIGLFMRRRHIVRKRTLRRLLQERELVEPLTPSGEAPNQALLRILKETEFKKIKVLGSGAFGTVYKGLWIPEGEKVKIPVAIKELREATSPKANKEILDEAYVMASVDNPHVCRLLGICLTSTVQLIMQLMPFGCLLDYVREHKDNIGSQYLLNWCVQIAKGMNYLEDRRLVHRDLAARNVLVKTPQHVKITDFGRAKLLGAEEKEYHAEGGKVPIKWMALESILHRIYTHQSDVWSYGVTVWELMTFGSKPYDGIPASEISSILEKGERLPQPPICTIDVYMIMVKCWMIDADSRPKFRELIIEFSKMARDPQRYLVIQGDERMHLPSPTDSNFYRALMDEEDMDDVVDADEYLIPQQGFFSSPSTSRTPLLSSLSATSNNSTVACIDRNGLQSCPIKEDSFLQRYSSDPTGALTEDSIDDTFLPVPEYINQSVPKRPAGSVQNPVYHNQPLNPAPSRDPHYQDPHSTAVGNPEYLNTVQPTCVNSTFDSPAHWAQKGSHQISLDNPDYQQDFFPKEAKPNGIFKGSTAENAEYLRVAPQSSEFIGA

[13] = biological target: Epidermal growth factor receptor (Homo sapiens, UniProt P00533); assay: Inhibition of wild type EGFR (unknown origin) by mobility shift assay
Chain of Epidermal growth factor receptor (Homo sapiens, UniProt P00533) (P00533 whole entry): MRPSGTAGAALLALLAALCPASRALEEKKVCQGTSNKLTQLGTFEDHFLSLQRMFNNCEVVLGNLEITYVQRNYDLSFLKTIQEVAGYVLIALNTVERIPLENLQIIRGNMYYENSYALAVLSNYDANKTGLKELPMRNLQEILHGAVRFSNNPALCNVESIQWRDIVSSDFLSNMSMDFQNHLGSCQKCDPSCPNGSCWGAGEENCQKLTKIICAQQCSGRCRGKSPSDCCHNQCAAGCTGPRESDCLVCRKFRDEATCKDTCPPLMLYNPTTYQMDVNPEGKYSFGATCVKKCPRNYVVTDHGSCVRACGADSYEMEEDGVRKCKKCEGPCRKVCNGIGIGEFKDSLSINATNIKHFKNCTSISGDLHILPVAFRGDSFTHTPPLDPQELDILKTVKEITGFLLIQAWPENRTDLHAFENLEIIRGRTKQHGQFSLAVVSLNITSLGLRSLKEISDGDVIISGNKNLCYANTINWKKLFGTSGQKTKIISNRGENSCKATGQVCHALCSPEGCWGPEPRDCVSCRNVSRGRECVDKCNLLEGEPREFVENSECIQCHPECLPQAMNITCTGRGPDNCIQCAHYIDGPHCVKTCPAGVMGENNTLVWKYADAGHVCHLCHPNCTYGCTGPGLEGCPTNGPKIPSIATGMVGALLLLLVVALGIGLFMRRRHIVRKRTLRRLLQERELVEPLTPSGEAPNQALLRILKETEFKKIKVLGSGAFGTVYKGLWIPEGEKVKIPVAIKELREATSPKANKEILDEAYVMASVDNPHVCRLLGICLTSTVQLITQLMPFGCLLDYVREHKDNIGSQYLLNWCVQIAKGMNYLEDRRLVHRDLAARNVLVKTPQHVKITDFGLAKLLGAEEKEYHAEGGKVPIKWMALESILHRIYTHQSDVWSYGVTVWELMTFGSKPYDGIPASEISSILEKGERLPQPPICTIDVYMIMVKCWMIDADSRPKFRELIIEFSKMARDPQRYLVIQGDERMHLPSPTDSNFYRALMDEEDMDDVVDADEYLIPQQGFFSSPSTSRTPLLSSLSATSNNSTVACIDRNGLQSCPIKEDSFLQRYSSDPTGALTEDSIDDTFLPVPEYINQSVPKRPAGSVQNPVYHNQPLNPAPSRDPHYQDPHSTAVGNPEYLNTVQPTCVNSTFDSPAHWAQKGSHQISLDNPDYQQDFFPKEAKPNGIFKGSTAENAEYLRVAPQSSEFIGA

NCI-H1975 [14] = assay: Induction of cell cycle arrest in human H1975 cells assessed as number of cells at G1/G0 phase at 1.3 uM after 24 hrs by flow cytometry (reference value: 43.18%); assay type: functional
NCI-H1975 [15] = assay: Induction of cell cycle arrest in human H1975 cells assessed as number of cells at G2/M phase at 12 uM after 24 hrs by flow cytometry (reference value: 31.41%); assay type: functional
NCI-H1975 [16] = assay: Induction of cell cycle arrest in human H1975 cells assessed as number of cells at G2/M phase at 4 uM after 24 hrs by flow cytometry (reference value: 31.41%); assay type: functional
NCI-H1975 [17] = assay: Induction of apoptosis in human H1975 cells assessed as cell shrinkage after 48 hrs by AO/EB staining based fluorescent microscopic analysis; assay type: functional; details: dose 0.1-10 µM, DDE = dose-dependent effect
A549 [18] = assay: Induction of apoptosis in human A549 cells assessed as chromatin condensation after 48 hrs by AO/EB staining based fluorescent microscopic analysis; assay type: functional, cell-based; details: dose 0.1-10 µM, DDE = dose-dependent effect
NCI-H1975 [19] = assay: Induction of cell cycle arrest in human H1975 cells assessed as number of cells at G2/M phase at 1.3 uM after 24 hrs by flow cytometry (reference value: 31.41%); assay type: functional
NCI-H1975 [20] = assay: Antiproliferative activity against human H1975 cells assessed as cell viability after 72 hrs by MTT assay; assay type: functional, cell-based; details: NCI-H1975, 72 h
[21] = biological target: Epidermal growth factor receptor (Homo sapiens, UniProt P00533, C797S/L858R/T790M); assay: Inhibition of EGFR L858R/T790M/C797S mutant (unknown origin) by mobility shift assay
Chain of Epidermal growth factor receptor (Homo sapiens, UniProt P00533, C797S/L858R/T790M) (P00533 25-1210 T790M/C797S/L858R limits assumed): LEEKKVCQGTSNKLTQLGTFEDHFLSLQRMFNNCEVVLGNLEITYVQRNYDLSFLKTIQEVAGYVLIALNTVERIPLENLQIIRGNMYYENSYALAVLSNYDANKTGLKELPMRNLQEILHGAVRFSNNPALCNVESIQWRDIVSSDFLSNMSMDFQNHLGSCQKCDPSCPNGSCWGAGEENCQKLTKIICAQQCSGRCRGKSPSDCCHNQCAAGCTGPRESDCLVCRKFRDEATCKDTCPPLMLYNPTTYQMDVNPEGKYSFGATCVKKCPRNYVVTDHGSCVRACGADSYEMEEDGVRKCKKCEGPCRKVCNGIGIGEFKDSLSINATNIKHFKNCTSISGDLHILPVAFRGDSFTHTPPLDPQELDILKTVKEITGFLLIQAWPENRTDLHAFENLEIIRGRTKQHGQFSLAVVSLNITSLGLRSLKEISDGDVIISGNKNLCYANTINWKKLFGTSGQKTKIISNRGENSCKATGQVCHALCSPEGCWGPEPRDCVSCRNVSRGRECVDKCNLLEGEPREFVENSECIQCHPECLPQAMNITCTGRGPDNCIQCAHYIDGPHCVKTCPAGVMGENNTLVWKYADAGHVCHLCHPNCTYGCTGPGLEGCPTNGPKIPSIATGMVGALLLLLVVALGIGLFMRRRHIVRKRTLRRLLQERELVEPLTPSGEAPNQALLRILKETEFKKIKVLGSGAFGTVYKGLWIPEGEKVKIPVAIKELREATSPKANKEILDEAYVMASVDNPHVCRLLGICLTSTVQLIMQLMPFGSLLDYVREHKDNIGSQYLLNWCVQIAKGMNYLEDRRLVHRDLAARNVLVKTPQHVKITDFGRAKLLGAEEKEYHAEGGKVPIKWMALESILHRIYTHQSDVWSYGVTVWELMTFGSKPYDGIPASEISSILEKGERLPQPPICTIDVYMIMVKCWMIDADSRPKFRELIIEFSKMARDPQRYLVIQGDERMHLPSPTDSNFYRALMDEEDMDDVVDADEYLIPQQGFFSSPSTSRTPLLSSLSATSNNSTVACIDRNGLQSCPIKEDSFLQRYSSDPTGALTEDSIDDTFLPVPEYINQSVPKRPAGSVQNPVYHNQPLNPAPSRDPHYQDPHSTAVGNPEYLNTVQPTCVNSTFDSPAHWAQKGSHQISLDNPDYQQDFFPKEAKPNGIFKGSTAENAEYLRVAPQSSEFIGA

NCI-H1975 [22] = assay: Induction of cell cycle arrest in human H1975 cells assessed as number of cells at G1/G0 phase at 12 uM after 24 hrs by flow cytometry (reference value: 43.18%); assay type: functional

Chain of Epidermal growth factor receptor (Homo sapiens), P00533 [L858R,T790M,C797S] (P00533 whole entry T790M/C797S/L858R): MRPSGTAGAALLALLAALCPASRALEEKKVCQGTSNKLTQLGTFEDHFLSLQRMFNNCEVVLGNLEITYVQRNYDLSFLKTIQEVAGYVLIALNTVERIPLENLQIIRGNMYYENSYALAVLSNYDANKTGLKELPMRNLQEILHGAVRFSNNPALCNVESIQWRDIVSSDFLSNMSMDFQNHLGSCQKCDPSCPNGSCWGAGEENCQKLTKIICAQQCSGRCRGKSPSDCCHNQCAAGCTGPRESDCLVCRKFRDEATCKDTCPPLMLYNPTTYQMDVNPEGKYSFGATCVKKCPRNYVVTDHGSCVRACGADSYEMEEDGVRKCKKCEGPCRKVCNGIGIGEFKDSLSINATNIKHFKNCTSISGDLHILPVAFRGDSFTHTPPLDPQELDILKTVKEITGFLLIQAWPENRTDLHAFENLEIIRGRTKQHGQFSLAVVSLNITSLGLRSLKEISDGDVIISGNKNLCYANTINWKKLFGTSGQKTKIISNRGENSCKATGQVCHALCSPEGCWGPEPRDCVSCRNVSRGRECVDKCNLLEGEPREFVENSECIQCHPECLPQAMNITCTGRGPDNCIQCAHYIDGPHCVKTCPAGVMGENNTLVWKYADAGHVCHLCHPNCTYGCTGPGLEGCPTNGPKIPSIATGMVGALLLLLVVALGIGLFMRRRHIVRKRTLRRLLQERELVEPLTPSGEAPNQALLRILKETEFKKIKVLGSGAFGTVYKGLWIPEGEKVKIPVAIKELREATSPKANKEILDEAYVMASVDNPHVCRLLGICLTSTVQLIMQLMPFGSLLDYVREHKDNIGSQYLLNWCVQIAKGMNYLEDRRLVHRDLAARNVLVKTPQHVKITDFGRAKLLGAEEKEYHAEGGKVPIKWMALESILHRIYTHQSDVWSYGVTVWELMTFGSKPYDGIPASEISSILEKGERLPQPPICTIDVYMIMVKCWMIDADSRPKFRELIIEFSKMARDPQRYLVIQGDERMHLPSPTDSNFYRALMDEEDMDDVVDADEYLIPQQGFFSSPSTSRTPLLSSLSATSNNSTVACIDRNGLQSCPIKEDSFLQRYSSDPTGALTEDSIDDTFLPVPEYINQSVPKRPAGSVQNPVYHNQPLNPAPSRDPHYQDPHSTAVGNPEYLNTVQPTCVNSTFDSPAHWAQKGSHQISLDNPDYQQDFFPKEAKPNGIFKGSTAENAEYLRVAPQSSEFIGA

- inhibition [2]: 60.8%
- IC50 [4]: > 1000 nM
- IC50 (A549 [7]): 2530 nM
- IC50 [12]: 10 nM
- IC50 [13]: 29 nM
- IC50 (NCI-H1975 [20]): 1560 nM
- IC50 [21]: 242 nM
SMILES: COc1cc(N(C)CCN(C)C)c(NC(=O)c2ccncn2)cc1Nc1nccc(-c2cn(C)c3ccccc23)n1
- Activity (A549 [1]): Dde
- Activity (NCI-H1975 [3]): Dde
- inhibition (NCI-H1975 [5]): Active
- inhibition (A549 [6]): Active
- Activity (NCI-H1975 [8]): 18.36%
- Activity (NCI-H1975 [9]): 22.67%
- Activity (NCI-H1975 [10]): 12.55%
- Activity (NCI-H1975 [11]): 50.62%
- Activity (NCI-H1975 [14]): 46.15%
- Activity (NCI-H1975 [15]): 30.13%
- Activity (NCI-H1975 [16]): 31.02%
- Activity (NCI-H1975 [17]): Dde
- Activity (A549 [18]): Dde
- Activity (NCI-H1975 [19]): 31.18%
- Activity (NCI-H1975 [22]): 57.32%

Source: ChEMBL document CHEMBL5137051 (Eur J Med Chem, 2022)
